Experimental data published in US20250186436A1 (4E Therapeutics, Inc., priority 2021, published 2025).
Values joined by “and” are separate entries in the source; they are usually repeats but may differ in a detail not shown here. Equal values may be shown once. Read-outs that look alike come from different tables or passages of the source.

Legend:
[1] = Plasma and brain concentrations, brain to plasma ratio 24 hr after last of five 10 mg/kg PO doses (Example 7); assay type: in vivo; conditions: rats, 24 hr after the last of five 10 mg/kg PO doses; for concentration at 24 h: oral, 10 mg/kg
Source text: Table 21 provides plasma and brain concentrations at 24 hr after the last dose of five daily P0 doses of 4ET-03-053.

[2] = Plasma and brain concentrations, brain to plasma ratio in SD rats 2 hr after single 10 mg/kg PO (Example 4); assay type: in vivo; conditions: 2 hr post single PO dose 10 mg/kg; for concentration at 2 hr: Sprague-Dawley, po
Experimental: A brain to plasma ratio of 0.096 (BP=0.096) in SD rats is observed at 2 hr following a single 10 mg/kg dose of 4ET-03-053.

[3] = test system: eIF4E phosphorylation in mouse tissues; test: In vivo biochemical assay (Western blot) of eIF4E phosphorylation in mouse tissues; conditions: mice, PO 10 mg/kg
Experimental: […] Tissues were acutely dissected and immediately frozen. Frozen samples were later bead homogenized with protease and phosphatase inhibitor cocktails present in the homogenization buffer and then protein was quantified by Bradford assay. 20 μg of protein was run per lane on standard SDS-PAGE. Blots were probed with antibodies against p-eIF4E and total-eIF4E and imaged on a BioRad imaging system. […] However, inhibition of phosphorylation of eIF4E in the brain was not observed, as determined by Western blot analysis of brain tissue from the cortex.

[4] = test system: eIF4E phosphorylation at Serine 209 in HEK 293 cells; test: eIF4E phosphorylation in HEK 293 cells (phospho-specific antibody, fluorescent plate reader); assay type: cell-based; conditions: Homo sapiens, HEK293; eIF4E phosphorylation at Serine 209, 2 hours exposure; read-out: HEK 293 cell;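 also: Well-level p-eIF4E immunofluorescence normalized to DAPI signal, expressed as percent eIF4E phosphorylation, with IC50 derived from concentration-response curves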
[5] = test system: IL-6 evoked grimace in ICR mice; test: IL-6 evoked grimace test; assay type: in vivo; conditions: PO 1 hr prior to IL-6 (4ET-03-053: 10 mg/kg)
Experimental: Male and female Institute for Cancer Research (ICR) mice were used in these experiments. Mice were bred in house at University of Texas at Dallas and used at between 12 and 24 weeks of age. Mice were habituated to plexiglass boxes of approximately 4×6 inches in size with openable tops. Habituation took place over 2 days with animals exposed to the boxes for at least 30 min. A blinded observer scored baseline grimacing using the method previously described by Mogil and colleagues (Langford D J, et al. “Coding of facial expressions of pain in the laboratory mouse” Nat Methods 7:447-449 (2010)). On test day, mice were given test compounds 1 hr prior to injection of interleukin 6 (human recombinant IL-6, R&D Systems) which was given at a dose of 0.1 ng in saline via an intraplantar injection as described previously (Moy J K, et al. “The MNK-eIF4E Signaling Axis Contributes to Injury-Induced Nociceptive Plasticity and the Development of Chronic Pain” J Neurosci. 37:7481-7499 (2017)). Test compounds were given orally (PO) via a flexible oral gavage canula built for mice. 4ET-03-053 is efficacious in the IL-6 evoked grimace test in mice (PO; 10 mg/kg).
Effect sizes were calculated per mouse by subtracting the baseline grimace score from the sum of the grimace scores for 1 and 3 hr time points.

[6] = target: T1, recombinant full-length human kinase MNK1 (Homo sapiens, UniProt Q9BUB5); test: MNK1 radiometric kinase activity assay; assay type: biochemical; conditions: radiometric activity assay; read-out: MNK1
T1 construct: the recombinant full-length human kinase MNK1; made in house; host or cells: insect cells

[7] = Plasma and brain concentrations, brain:plasma ratio 24 hr after last of five daily 1 mg/kg PO doses (Example 6); assay type: in vivo, rats; conditions: for concentration at 24 h / Kp at 24 h: rat; for concentration at 24 h: oral, 1 mg/kg
Source text: Table 18 provides plasma and brain concentrations of 4ET-03-0053 at 24 hr after the last dose of five daily P0 doses.

[8] = test system: P-gp (human MDR1, ABCB1); test: MDCK-MDR1 permeability (blood-brain barrier permeability); conditions: dog
[9] = Liver microsome stability; conditions: mouse, liver microsomes
[10] = individual animals (n = 3), 10 mg/kg

T1 sequence (Q9BUB5 whole entry): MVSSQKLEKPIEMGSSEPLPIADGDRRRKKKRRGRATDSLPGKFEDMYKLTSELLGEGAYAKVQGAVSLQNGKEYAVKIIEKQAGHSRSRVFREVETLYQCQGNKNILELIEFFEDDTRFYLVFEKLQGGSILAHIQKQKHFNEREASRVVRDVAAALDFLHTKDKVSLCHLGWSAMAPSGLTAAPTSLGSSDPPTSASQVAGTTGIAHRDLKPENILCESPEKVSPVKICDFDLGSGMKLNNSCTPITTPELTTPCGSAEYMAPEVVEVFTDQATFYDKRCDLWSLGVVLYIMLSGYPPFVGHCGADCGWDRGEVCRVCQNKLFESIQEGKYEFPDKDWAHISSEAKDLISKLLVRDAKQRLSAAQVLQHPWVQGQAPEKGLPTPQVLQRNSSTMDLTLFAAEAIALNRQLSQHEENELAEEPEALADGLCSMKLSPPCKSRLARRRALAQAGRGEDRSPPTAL

Cc1cc(Nc2cc(N)ncn2)c(=O)n2c1C(=O)NC21CCC2(CC2)CC1 [4ET-03-053, 6″-((6-Aminopyrimidin-4-yl)amino)-8″-methyl-2″H-dispiro[cyclopropane-1,1′-cyclohexane-4′,3″-imidazo[1,5-a]pyridine]-1″,5″-dione]
concentration at 24 h ([1]; male, Sprague-Dawley, rat, brain homogenate, brain homogenate, individual animals (n = 3), read-out: Tissue Homogenate Conc.): 75.6 ng/mL
concentration at 24 h ([1]; male, Sprague-Dawley, rat, brain homogenate, brain homogenate, mean, read-out: Tissue Homogenate Conc., Mean): 85.6 ng/mL
concentration at 24 h ([1]; male, Sprague-Dawley, rat, brain, brain, read-out: Mean Tissue): 342 ng/g
concentration at 24 h ([1]; male, Sprague-Dawley, rat, plasma, plasma, individual animals (n = 3), read-out: Plasma Conc.): 2390 ng/mL
concentration at 24 h ([1]; male, Sprague-Dawley, rat, plasma, plasma, mean, read-out: Plasma Conc., Mean): 2670 ng/mL
Kp at 24 h ([1]; male, Sprague-Dawley, rat, brain to plasma, read-out: Mean Tissue/Plasma Conc. Ratio): 0.128
Tissue Homogenate Conc. ([1]; brain homogenate, individual animals (n = 3)): 88.2 ng/mL and 93.0 ng/mL
Plasma Conc. ([1]; plasma, individual animals (n = 3)): 2740 ng/mL and 2880 ng/mL
Brain Tissue Homogenate Conc. [2, 10]: 406 ng/mL and 323 ng/mL
Plasma Conc. [2, 10]: 16900 ng/mL and 14400 ng/mL
Kp at 2 h ([2]; Sprague Dawley, rat, brain/plasma, read-out: Mean Tissue/Plasma Conc. Ratio (brain to plasma ratio)): 0.096
concentration at 2 hr ([2]; rat, brain tissue homogenate, 10 mg/kg, individual animals (n = 3), read-out: Brain Tissue Homogenate Conc.): 319 ng/mL
concentration at 2 hr ([2]; rat, brain tissue homogenate, 10 mg/kg, mean, read-out: Brain Tissue Homogenate Conc., Mean): 349 ng/mL
concentration at 2 hr ([2]; rat, brain, 10 mg/kg, read-out: Brain Mean Tissue): 1400 ng/g
concentration at 2 hr ([2]; rat, plasma, 10 mg/kg, individual animals (n = 3), read-out: Plasma Conc.): 12200 ng/mL
concentration at 2 hr ([2]; rat, plasma, 10 mg/kg, mean, read-out: Plasma Conc., Mean): 14500 ng/mL
inhibition of phosphorylation of eIF4E in the brain (cortex) [3]: not observed
inhibition of eIF4E phosphorylation in DRGs ([3]; 2 hours post dose): significant inhibition
inhibition of eIF4E phosphorylation in sciatic nerve ([3]; 2 hours post dose): significant inhibition
inhibition of eIF4E phosphorylation in spleen ([3]; 2 hours post dose): significant inhibition
IC50 [4]: 10.1 nM
efficacy in the IL-6 evoked grimace test [5]: efficacious
IC50 [6]: 215 nM
concentration at 24 h ([7]; male, Sprague-Dawley, brain homogenate, rats, brain homogenate, 24 hr after the last 1 mg/kg PO dose on day 5, individual animals (n = 3), read-out: Tissue Homogenate Conc.): 7.22 ng/mL
concentration at 24 h ([7]; male, Sprague-Dawley, brain homogenate, rats, brain homogenate, 24 hr after the last 1 mg/kg PO dose on day 5, mean, read-out: Tissue Homogenate Conc., Mean): 6.02 ng/mL
concentration at 24 h ([7]; male, Sprague-Dawley, brain, rats, brain, 24 hr after the last 1 mg/kg PO dose on day 5, read-out: Mean Tissue): 24.1 ng/g
concentration at 24 h ([7]; male, Sprague-Dawley, plasma, rats, plasma, 24 hr after the last 1 mg/kg PO dose on day 5, individual animals (n = 3), read-out: Plasma Conc.): 318 ng/mL
concentration at 24 h ([7]; male, Sprague-Dawley, plasma, rats, plasma, 24 hr after the last 1 mg/kg PO dose on day 5, mean, read-out: Plasma Conc., Mean): 278 ng/mL
Kp at 24 h ([7]; male, Sprague-Dawley, rats, brain to plasma, 24 hr after the last 1 mg/kg PO dose on day 5, read-out: Mean Tissue/Plasma Conc. Ratio): 0.086
Kp at 24 h ([7]; brain, Sprague-Dawley rats, 24 hr after the last dose of five daily PO doses of 1 mg/kg, read-out: brain:plasma ratio): 0.086
Tissue Homogenate Conc. ([7]; rats, brain homogenate, 24 hr after the last 1 mg/kg PO dose on day 5, individual animals (n = 3)): 5.79 ng/mL and 5.04 ng/mL
Plasma Conc. ([7]; rats, plasma, 24 hr after the last 1 mg/kg PO dose on day 5, individual animals (n = 3)): 291 ng/mL and 226 ng/mL
Papp A→B at 5 uM [8]: 63.3 ×10⁻⁶ cm/s
Papp B→A at 5 uM [8]: 68.1 ×10⁻⁶ cm/s
efflux ratio at 5 uM [8]: 1.1
half-life [9]: 228 min
